# Source: US20180243286A1, “Antibacterial compositions of a beta-lactamase inhibitor with a cephalosporin” (WOCKHARDT LIMITED, priority 2015, published 2018)
# Key:
# [1] = test system: E. coli M50 producing CMY 6, DHA-1/2 beta-lactamase enzymes; assay: Time kill study against clinical isolate of E. coli M50; format: cell-based; details: for Bacterial count (Log10 CFU/ml) 0 hour: 0 hour (starting inoculum); for Effect on bacterial counts when used alone: throughout the duration of the study
# Description: (§1) The killing effect of the combinations according to invention was studied by performing time kill studies. In a typical time kill study, the freshly grown cultures were diluted to the required cell density (initial starting inoculum) in Cation adjusted Muller Hinton broth medium (BD, USA). The antibacterial agents (either alone or in combination) at the required concentrations were added into the culture-containing medium. The samples were incubated under shaking condition (120 rpm) at 37° C. Enumeration of viable bacterial count was done every 2 hour by diluting in normal saline and plating on to the Tryptic Soya Agar plates (BD, USA). The plates were incubated for 24 hours to arrive at the viable bacterial count. The results are expressed in terms of log10 CFU per ml. In general, the decrease of 1 log10 CFU/ml corresponds to 90% killing of bacteria. Similarly, 2 log10 CFU/ml reductions indicates to 99% killing of bacteria and 3 log10 CFU/ml reductions is equal to 99.9% killing of bacteria.
# E. coli M50 produces resistant CMY 6, DHA-1/2 beta-lactamase enzymes.
# [2] = test system: K. pneumoniae H521 producing KPC, SHV and TEM beta-lactamase enzymes; assay: Time kill study against clinical isolate of K. pneumoniae H521; format: cell-based; details: for Bacterial count (Log10 CFU/ml) 0 hour: 0 hour (starting inoculum); for Change in Log10 CFU/ml over 0 hour count after 8 hours: positive = increase; for Effect on bacterial counts when used alone: throughout the duration of the study
# Description: as §1
# K. pneumoniae H521 produces resistant KPC, SHV and TEM beta-lactamase enzymes.
# [3] = agent alone 4 mcg/ml, negative = reduction
Structure (SMILES),Bacterial count (Log10 CFU/ml) 0 hour ([1]; agent alone 4 mcg/ml),Bacterial count (Log10 CFU/ml) 2 hour ([1]; agent alone 4 mcg/ml),Bacterial count (Log10 CFU/ml) 4 hour ([1]; agent alone 4 mcg/ml),Bacterial count (Log10 CFU/ml) 6 hour ([1]; agent alone 4 mcg/ml),Bacterial count (Log10 CFU/ml) 8 hour ([1]; agent alone 4 mcg/ml),"Change in Log10 CFU/ml over 0 hour count after 8 hours [1, 3]",Bacterial count (Log10 CFU/ml) 0 hour ([2]; agent alone 4 mcg/ml),Bacterial count (Log10 CFU/ml) 2 hour ([2]; agent alone 4 mcg/ml),Bacterial count (Log10 CFU/ml) 4 hour ([2]; agent alone 4 mcg/ml),Bacterial count (Log10 CFU/ml) 6 hour ([2]; agent alone 4 mcg/ml),Bacterial count (Log10 CFU/ml) 8 hour ([2]; agent alone 4 mcg/ml),Change in Log10 CFU/ml over 0 hour count after 8 hours ([2]; agent alone 4 mcg/ml),Effect on bacterial counts when used alone [1],Effect on bacterial counts when used alone [2],other results
C=CC1=C(C(=O)O)N2C(=O)[C@@H](NC(=O)/C(=N\OCC(=O)O)c3csc(N)n3)[C@H]2SC1 [Cefixime],7.14 Log10 CFU/ml,8.95 Log10 CFU/ml,8.40 Log10 CFU/ml,8.90 Log10 CFU/ml,8.65 Log10 CFU/ml,1.51 Log10 CFU/ml,7.18 Log10 CFU/ml,8.26 Log10 CFU/ml,8.85 Log10 CFU/ml,8.98 Log10 CFU/ml,8.95 Log10 CFU/ml,1.77 Log10 CFU/ml,,,
COCC1=C(C(=O)O)N2C(=O)[C@@H](NC(=O)/C(=N\OC)c3csc(N)n3)[C@H]2SC1 [Cefpodoxime],7.14 Log10 CFU/ml,8.18 Log10 CFU/ml,8.88 Log10 CFU/ml,8.95 Log10 CFU/ml,8.40 Log10 CFU/ml,1.26 Log10 CFU/ml,7.18 Log10 CFU/ml,8.60 Log10 CFU/ml,8.74 Log10 CFU/ml,8.93 Log10 CFU/ml,8.81 Log10 CFU/ml,1.63 Log10 CFU/ml,,,
Nc1nc(/C(=C/CC(=O)O)C(=O)N[C@@H]2C(=O)N3C(C(=O)O)=CCS[C@H]23)cs1 [Ceftibuten],7.14 Log10 CFU/ml,7.90 Log10 CFU/ml,8.40 Log10 CFU/ml,8.98 Log10 CFU/ml,8.93 Log10 CFU/ml,1.79 Log10 CFU/ml,7.18 Log10 CFU/ml,8.18 Log10 CFU/ml,8.88 Log10 CFU/ml,8.40 Log10 CFU/ml,8.60 Log10 CFU/ml,1.42 Log10 CFU/ml,did not reduce the bacterial counts,did not reduce the bacterial counts,
CO/N=C(\C(=O)N[C@@H]1C(=O)N2C(C(=O)O)=C(COC(N)=O)CS[C@H]12)c1ccco1 [Cefuroxime],7.14 Log10 CFU/ml,8.33 Log10 CFU/ml,8.54 Log10 CFU/ml,9.20 Log10 CFU/ml,8.65 Log10 CFU/ml,1.51 Log10 CFU/ml,7.18 Log10 CFU/ml,8.48 Log10 CFU/ml,8.70 Log10 CFU/ml,8.78 Log10 CFU/ml,8.60 Log10 CFU/ml,1.42 Log10 CFU/ml,did not reduce the bacterial counts,did not reduce the bacterial counts,
"NCCONC(=O)[C@@H]1CC[C@@H]2CN1C(=O)N2OS(=O)(=O)O [Compound of Formula (I), (2S,5R)—N-(2-aminoethoxy)-7-oxo-6-(sulfoxy)-1,6-diazabicyclo[3.2.1]octane-2-carboxamide]",7.14 Log10 CFU/ml,6.40 Log10 CFU/ml,5.32 Log10 CFU/ml,5.32 Log10 CFU/ml,5.34 Log10 CFU/ml,−1.8 Log10 CFU/ml,7.18 Log10 CFU/ml,7.98 Log10 CFU/ml,8 Log10 CFU/ml,8.37 Log10 CFU/ml,8.04 Log10 CFU/ml,0.86 Log10 CFU/ml,did not reduce the bacterial counts,did not reduce the bacterial counts,
C[C@@H](O)[C@H]1C(=O)N2C(C(=O)O)=C(SCCN=CN)C[C@H]12 [Imipenem],,,,,,,,,,,,,,,"Bacterial count (Log10 CFU/ml) 0 hour ([1]; 1 mcg/ml alone): 7.14 Log10 CFU/ml; Bacterial count (Log10 CFU/ml) 2 hour ([1]; 1 mcg/ml alone): 4.25 Log10 CFU/ml; Bacterial count (Log10 CFU/ml) 4 hour ([1]; 1 mcg/ml alone): 4.60 Log10 CFU/ml; Bacterial count (Log10 CFU/ml) 6 hour ([1]; 1 mcg/ml alone): 6.04 Log10 CFU/ml; Bacterial count (Log10 CFU/ml) 8 hour ([1]; 1 mcg/ml alone): 7.34 Log10 CFU/ml; Change in Log10 CFU/ml over 0 hour count after 8 hours ([1]; 1 mcg/ml alone, positive = increase): 0.2 Log10 CFU/ml; Bacterial count (Log10 CFU/ml) 0 hour ([2]; 8 mcg/ml alone): 7.18 Log10 CFU/ml; Bacterial count (Log10 CFU/ml) 2 hour ([2]; 8 mcg/ml alone): 8.10 Log10 CFU/ml; Bacterial count (Log10 CFU/ml) 4 hour ([2]; 8 mcg/ml alone): 8.81 Log10 CFU/ml; Bacterial count (Log10 CFU/ml) 6 hour ([2]; 8 mcg/ml alone): 8.70 Log10 CFU/ml; Bacterial count (Log10 CFU/ml) 8 hour ([2]; 8 mcg/ml alone): 9.11 Log10 CFU/ml; Change in Log10 CFU/ml over 0 hour count after 8 hours ([2]; 8 mcg/ml alone): 1.93 Log10 CFU/ml"
